From ChEMBL document CHEMBL1811766, “Structure-activity relationship studies of novel pyrazole and imidazole carboxamides as cannabinoid-1 (CB1) antagonists” (Bioorg Med Chem Lett, 2011)
Values belong to the compound of their own block, whether it stands above or below them.

Legend:
[1] = target: Cannabinoid receptor 2 (Homo sapiens) (UniProt P34972); assay: Displacement of [3H]CP55940 from human cannabinoid CB2 receptor expressed in CHO cells at 1 uM at pH 7.4 after 1 hr by liquid scintillation counting; assay type: cell-based
Cannabinoid receptor 2 (Homo sapiens), sequence (P34972 whole entry): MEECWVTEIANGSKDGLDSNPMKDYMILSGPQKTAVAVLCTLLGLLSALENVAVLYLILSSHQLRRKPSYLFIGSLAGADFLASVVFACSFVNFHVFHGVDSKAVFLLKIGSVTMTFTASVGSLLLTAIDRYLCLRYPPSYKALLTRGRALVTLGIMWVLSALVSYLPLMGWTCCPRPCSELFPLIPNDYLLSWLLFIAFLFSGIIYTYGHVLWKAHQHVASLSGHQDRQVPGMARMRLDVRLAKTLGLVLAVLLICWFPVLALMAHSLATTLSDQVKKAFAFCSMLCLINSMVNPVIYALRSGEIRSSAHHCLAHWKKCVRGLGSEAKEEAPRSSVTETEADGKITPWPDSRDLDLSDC

[2] = target: Cannabinoid receptor 1 (Rattus norvegicus, UniProt P20272); assay: Displacement of [3H]SR141716A from rat brain CB1 receptor at pH 7.4 after 1 hr by liquid scintillation counting
Cannabinoid receptor 1, sequence (P20272 whole entry): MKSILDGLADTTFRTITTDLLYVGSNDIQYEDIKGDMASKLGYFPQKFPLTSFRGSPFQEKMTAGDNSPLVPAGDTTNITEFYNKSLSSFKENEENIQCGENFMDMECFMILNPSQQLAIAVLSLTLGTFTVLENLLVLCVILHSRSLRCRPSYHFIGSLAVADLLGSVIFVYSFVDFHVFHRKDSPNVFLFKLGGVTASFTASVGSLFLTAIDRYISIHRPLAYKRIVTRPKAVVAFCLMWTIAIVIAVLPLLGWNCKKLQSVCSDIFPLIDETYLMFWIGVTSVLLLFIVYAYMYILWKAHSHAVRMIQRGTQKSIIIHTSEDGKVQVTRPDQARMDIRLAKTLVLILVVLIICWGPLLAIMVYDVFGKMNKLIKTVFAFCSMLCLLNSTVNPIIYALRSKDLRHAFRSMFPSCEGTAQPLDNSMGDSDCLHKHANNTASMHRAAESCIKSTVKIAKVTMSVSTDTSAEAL

[3] = test system: Mus musculus; assay: Inhibition of WIN-55212 induced hypothermia in Swiss albino mouse assessed as change temperature at 10 mg/kg, po administered 30 mins after WIN55212 challenge measured after 30 mins; assay type: functional; conditions: 0.5 h
[4] = target: Voltage-gated inwardly rectifying potassium channel KCNH2 (Homo sapiens, UniProt Q12809); assay: Inhibition of human ERG expressed in HEK293 cells assessed as inhibition of potassium channel current after 5 mins by patch clamp assay; assay type: cell-based
Voltage-gated inwardly rectifying potassium channel KCNH2, sequence (Q12809 whole entry): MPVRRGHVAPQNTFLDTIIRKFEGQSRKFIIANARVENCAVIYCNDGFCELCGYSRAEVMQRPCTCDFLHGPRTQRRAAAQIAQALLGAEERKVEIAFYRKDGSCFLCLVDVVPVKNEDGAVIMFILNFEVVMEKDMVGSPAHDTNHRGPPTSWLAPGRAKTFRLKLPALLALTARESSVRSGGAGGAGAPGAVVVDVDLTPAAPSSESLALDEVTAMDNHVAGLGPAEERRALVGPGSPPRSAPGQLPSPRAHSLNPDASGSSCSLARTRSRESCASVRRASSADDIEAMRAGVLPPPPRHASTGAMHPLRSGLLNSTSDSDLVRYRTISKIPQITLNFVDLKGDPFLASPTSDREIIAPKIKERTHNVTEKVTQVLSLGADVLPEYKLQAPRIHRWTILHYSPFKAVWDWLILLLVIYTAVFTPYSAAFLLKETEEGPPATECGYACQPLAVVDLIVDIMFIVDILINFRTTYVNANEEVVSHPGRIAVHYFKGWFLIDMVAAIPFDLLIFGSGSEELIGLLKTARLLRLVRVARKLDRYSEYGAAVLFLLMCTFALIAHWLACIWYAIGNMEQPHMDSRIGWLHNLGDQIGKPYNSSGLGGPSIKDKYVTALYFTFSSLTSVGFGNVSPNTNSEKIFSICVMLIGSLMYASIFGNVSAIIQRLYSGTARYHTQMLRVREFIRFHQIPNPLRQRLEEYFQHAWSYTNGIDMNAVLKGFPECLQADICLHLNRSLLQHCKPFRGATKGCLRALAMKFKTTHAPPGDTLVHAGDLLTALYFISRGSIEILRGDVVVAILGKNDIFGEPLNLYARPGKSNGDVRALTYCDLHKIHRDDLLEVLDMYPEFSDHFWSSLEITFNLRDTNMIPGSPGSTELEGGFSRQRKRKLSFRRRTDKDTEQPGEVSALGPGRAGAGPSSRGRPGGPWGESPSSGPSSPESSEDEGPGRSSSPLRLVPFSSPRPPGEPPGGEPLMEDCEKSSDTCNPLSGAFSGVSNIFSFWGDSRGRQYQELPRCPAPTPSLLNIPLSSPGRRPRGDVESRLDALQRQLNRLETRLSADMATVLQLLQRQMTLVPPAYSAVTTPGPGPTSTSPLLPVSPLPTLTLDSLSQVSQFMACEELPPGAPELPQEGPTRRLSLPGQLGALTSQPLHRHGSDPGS

[5] = target: T1, hERG (KCNH2) (Homo sapiens, UniProt Q12809); assay: Inhibition of human ERG expressed in HEK293 cells assessed as inhibition of potassium channel current at 30 uM after 5 mins by patch clamp assay; assay type: cell-based; conditions: HEK293 cells expressing human ERG
T1 sequence (Q12809 whole entry): as above

[6] = target: Cannabinoid receptor 1 (Rattus norvegicus) (UniProt P20272); assay: Displacement of [3H]SR141716A from rat brain CB1 receptor at 1 uM at pH 7.4 after 1 hr by liquid scintillation counting
Cannabinoid receptor 1 (Rattus norvegicus), sequence (P20272 whole entry): as the sequence (P20272 whole entry) above

[7] = target: Cannabinoid receptor 1 (Rattus norvegicus) (UniProt P20272); assay: Displacement of [3H]SR141716A from rat brain CB1 receptor at 100 nM at pH 7.4 after 1 hr by liquid scintillation counting
[8] = test system: Mus musculus; assay: Antiobesity activity in Swiss albino mouse assessed as reduction in acute food intake at 10 mg/kg, po administered as single dose relative to control; assay type: functional; parameters: scale not given: the % may be the effect or the level left
[9] = test system: Mus musculus; assay: Antiobesity activity in Swiss albino mouse assessed as reduction in acute food intake at 30 mg/kg, po administered as single dose relative to control; assay type: functional; parameters: scale not given: the % may be the effect or the level left
[10] = test system: Mus musculus; assay: Antiobesity activity in Swiss albino mouse assessed as reduction in acute food intake administered orally as single dose; assay type: functional, organism-based
[11] = Ratio of drug level in brain to plasma in Swiss albino mouse at 30 mg/kg, po measured 1 hr post dose; assay type: ADME, organism-based; parameters: dose 30 mg/kg, route oral; conditions: read-out: BPR
[12] = AUC (0 to 24 hrs) in Swiss albino mouse at 30 mg/kg, po; assay type: ADME, organism-based; parameters: time < 24 hr, dose 30 mg/kg, route oral; conditions: plasma
[13] = Cmax in Swiss albino mouse at 30 mg/kg, po; assay type: ADME, organism-based; parameters: dose 30 mg/kg, route oral; conditions: in vivo
[14] = Half life in Swiss albino mouse at 30 mg/kg, po; assay type: ADME, organism-based; parameters: dose 30 mg/kg, route oral; conditions: in vivo
[15] = test system: Mus musculus; assay: Antiobesity activity in C57BL/6 mouse assessed as reduction in body weight at 10 mg/kg, po QD for 15 days; assay type: functional; parameters: scale not given: the % may be the effect or the level left
[16] = test system: Mus musculus; assay: Inhibition of WIN-55212 induced hypothermia in Swiss albino mouse assessed as change temperature at 3 mg/kg, po administered 30 mins after WIN55212 challenge measured after 30 mins; assay type: functional; conditions: 0.5 h
[17] = target: T1, hERG (KCNH2); assay: Inhibition of human ERG expressed in HEK293 cells assessed as inhibition of potassium channel current at 10 uM after 5 mins by patch clamp assay; assay type: cell-based; conditions: HEK293 cells expressing human ERG

SMILES: CCc1c(C(=O)NC(C)(C)c2nnnn2C)nn(-c2ccc(Cl)cc2Cl)c1-c1ccc(Br)cc1
inhibition [1]: 27%
IC50 [2]: 0.1 nM
inhibition in vivo at 10 mg/kg [3]: 83%
IC50 [4]: 22700 nM

SMILES: CC(C)(NC(=O)c1cn(-c2ccc(Cl)cc2Cl)c(-c2ccc(Cl)cc2)n1)c1noc(C(F)(F)F)n1
IC50 [2]: 30 nM

SMILES: CC(C)(NC(=O)c1nn(-c2ccc(Cl)cc2Cl)c(-c2ccc(Cl)cc2)c1CO)c1noc(C(F)(F)F)n1
inhibition [1]: 34%
IC50 [2]: 0.4 nM
inhibition in vivo at 10 mg/kg [3]: 97%
IC50 [4]: > 30000 nM
inhibition at 5 min, 30 µM [5]: 38.9%

SMILES: Cc1c(C(=O)NC(C)(C)c2cn3cc(C(F)(F)F)ccc3n2)nn(-c2ccc(Cl)cc2Cl)c1-c1ccc(Cl)cc1
IC50 [2]: 63 nM

SMILES: Cc1c(C(=O)NC(C)(C)c2cn3ccsc3n2)nn(-c2ccc(Cl)cc2Cl)c1-c1ccc(Cl)cc1
IC50 [2]: 11 nM

SMILES: Cc1c(C(=O)NC(C)(C)c2noc(C(F)(F)F)n2)nn(-c2ccc(Cl)cc2Cl)c1-c1ccc(Cl)cc1
IC50 [2]: 3 nM

SMILES: O=C(NC1(c2noc(C(F)(F)F)n2)CC1)c1nn(-c2ccc(Cl)cc2Cl)c(-c2ccc(Cl)cc2)c1C(=O)O
inhibition [7]: 44%
inhibition [6]: 66%

SMILES: Cc1c(C(=O)NC2(c3noc(C(F)(F)F)n3)CC2)nn(-c2ccc(Cl)cc2Cl)c1-c1ccc(Cl)cc1
inhibition [1]: 49%
IC50 [2]: 0.1 nM
inhibition in vivo at 10 mg/kg [3]: 97%
IC50 [4]: > 30000 nM
inhibition at 5 min, 30 µM [5]: 7.2%
Activity [8]: 31%
Activity [9]: 53%
Activity [10]: Dose-dependent effect
Kp at 1 h [11]: 0.21
AUC(0-t) at 24 h [12]: 4300 ng·h/mL
Cmax [13]: 350 ng/mL
half-life [14]: 4.22 h
Activity [15]: 11%

SMILES: Cc1c(C(=O)NC2(c3noc(C(F)(F)F)n3)CCC2)nn(-c2ccc(Cl)cc2Cl)c1-c1ccc(Cl)cc1
IC50 [2]: 0.8 nM

SMILES: CCc1c(C(=O)NC(C)(C)c2noc(C(F)(F)F)n2)nc(-c2ccc(Cl)cc2Cl)n1-c1ccc(Cl)cc1
IC50 [2]: 3 nM

SMILES: CCOC(=O)c1c(C(=O)NC2(c3noc(C(F)(F)F)n3)CC2)nn(-c2ccc(Cl)cc2Cl)c1-c1ccc(Cl)cc1
IC50 [2]: 1 nM

SMILES: Cc1c(C(=O)NC(C)(C)c2cn3cc(Cl)ccc3n2)nn(-c2ccc(Cl)cc2Cl)c1-c1ccc(Cl)cc1
IC50 [2]: 88 nM

SMILES: CC(C)(NC(=O)c1cn(-c2ccc(Cl)cc2Cl)c(-c2ccc(Cl)cc2)n1)c1nnc(C(F)(F)F)o1
IC50 [2]: 13 nM

SMILES: Cc1c(C(=O)NN2CCCCC2)nn(-c2ccc(Cl)cc2Cl)c1-c1ccc(Cl)cc1 [RIMONABANT]
inhibition [1]: 34%
inhibition in vivo at 3 mg/kg [16]: 99%
IC50 [4]: 2790 nM
Activity [8]: 71%
Kp at 1 h [11]: 3.64

SMILES: Cc1c(C(=O)NC(C)(C)c2nc(C(F)(F)F)cs2)nn(-c2ccc(Cl)cc2Cl)c1-c1ccc(Cl)cc1
IC50 [2]: 2 nM

SMILES: Cc1c(C(=O)NC(C)(C)c2nnc(C(F)(F)F)o2)nn(-c2ccc(Cl)cc2Cl)c1-c1ccc(Cl)cc1
inhibition [1]: 64%
IC50 [2]: 6 nM
inhibition in vivo at 10 mg/kg [3]: 97%

SMILES: C[C@H](NC(=O)C(C)(C)Oc1ccc(C(F)(F)F)cn1)[C@@H](Cc1ccc(Cl)cc1)c1cccc(C#N)c1 [TARANABANT]
IC50 [2]: 0.3 nM

SMILES: CCc1c(C(=O)NC(C)(C)c2nnnn2C)nn(-c2ccc(Cl)cc2Cl)c1-c1ccc(Cl)cc1
inhibition [1]: 16%
IC50 [2]: 0.5 nM
inhibition in vivo at 10 mg/kg [3]: 96%
inhibition at 5 min, 10 µM [17]: 59.7%

SMILES: CCC(C)(NC(=O)c1nn(-c2ccc(Cl)cc2Cl)c(-c2ccc(Cl)cc2)c1C)c1noc(C(F)(F)F)n1 (stereo not given)
IC50 [2]: 6 nM

SMILES: Cc1c(C(=O)NC(C)(C)c2cn3cccnc3n2)nn(-c2ccc(Cl)cc2Cl)c1-c1ccc(Cl)cc1
IC50 [2]: 121 nM

SMILES: CCc1c(C(=O)NC(C)(C)c2nnnn2C)nn(-c2ccc(Cl)cc2Cl)c1-c1ccc(OCC(=O)O)cc1
inhibition [6]: 25%
IC50 [2]: > 1000 nM

SMILES: O=C(NC1(c2noc(C(F)(F)F)n2)CC1)c1nn(-c2ccc(Cl)cc2Cl)c(-c2ccc(Cl)cc2)c1CO
inhibition [1]: 18%
IC50 [2]: 0.1 nM
inhibition in vivo at 10 mg/kg [3]: 99%

More lines, now with the values ahead:

IC50 [2]: 22 nM
SMILES: CCOC(=O)c1sc(C(C)(C)NC(=O)c2nn(-c3ccc(Cl)cc3Cl)c(-c3ccc(Cl)cc3)c2C)nc1C

IC50 [2]: 10 nM
SMILES: CCOC(=O)Cc1csc(C(C)(C)NC(=O)c2nn(-c3ccc(Cl)cc3Cl)c(-c3ccc(Cl)cc3)c2C)n1

IC50 [2]: 145 nM
SMILES: Cc1c(C(=O)NC(C)(C)c2nnnn2C)nn(-c2ccc(Cl)cc2Cl)c1-c1ccc(Cl)cc1

IC50 [2]: 15 nM
SMILES: Cc1csc(C(C)(C)NC(=O)c2nn(-c3ccc(Cl)cc3Cl)c(-c3ccc(Cl)cc3)c2C)n1

IC50 [2]: 31 nM
SMILES: Cn1nnnc1C(C)(C)NC(=O)c1nn(-c2ccc(Cl)cc2Cl)c2c1CCCc1cc(Cl)ccc1-2

IC50 [2]: 5 nM
SMILES: CCc1c(C(=O)NC(C)(C)c2nnnn2C)nn(-c2ccc(Cl)cc2Cl)c1-c1ccc(OC)cc1

IC50 [2]: 1.1 nM
SMILES: CCCS(=O)(=O)Oc1ccc(-c2c(C)c(C(=O)NC(C)(C)c3nnnn3C)nn2-c2ccc(Cl)cc2Cl)cc1

inhibition [6]: 50%
SMILES: Cc1c(C(=O)NC(C)(C)c2nc(CC(=O)O)cs2)nn(-c2ccc(Cl)cc2Cl)c1-c1ccc(Cl)cc1

inhibition [7]: 42%
SMILES: Cc1c(C(=O)NC(C)(C)c2nnnn2C)nc(-c2ccc(Cl)cc2Cl)n1-c1ccc(Cl)cc1

IC50 [2]: 33 nM
SMILES: Cc1nc(C(C)(C)NC(=O)c2nn(-c3ccc(Cl)cc3Cl)c(-c3ccc(Cl)cc3)c2C)no1

IC50 [2]: 88 nM
SMILES: Cc1c(C(=O)NC(C)(C)c2nnn(C)n2)nn(-c2ccc(Cl)cc2Cl)c1-c1ccc(Cl)cc1

inhibition [7]: 32%
SMILES: CCOC(=O)COc1ccc(-c2c(CC)c(C(=O)NC(C)(C)c3nnnn3C)nn2-c2ccc(Cl)cc2Cl)cc1

IC50 [2]: 17 nM
SMILES: CCOC(=O)c1ccc(-c2c(CC)c(C(=O)NC(C)(C)c3nnnn3C)nn2-c2ccc(Cl)cc2Cl)cc1

inhibition [7]: 38%
SMILES: COc1ccc2c(c1)CCCc1c(C(=O)NC(C)(C)c3nnnn3C)nn(-c3ccc(Cl)cc3Cl)c1-2

IC50 [2]: 39 nM
SMILES: CCc1c(C(=O)NC(C)(C)c2nnn(C)n2)nn(-c2ccc(Cl)cc2Cl)c1-c1ccc(Cl)cc1

inhibition [7]: 23%
SMILES: CCc1c(C(=O)NC(C)(C)c2nnnn2C)nn(-c2ccc(Cl)cc2Cl)c1-c1ccc(O)cc1

IC50 [2]: 36 nM
SMILES: CCc1c(C(=O)NC(C)(C)c2nnnn2C)nc(-c2ccc(Cl)cc2Cl)n1-c1ccc(Cl)cc1

IC50 [2]: 12 nM
SMILES: Cc1ncc(C(C)(C)NC(=O)c2nn(-c3ccc(Cl)cc3Cl)c(-c3ccc(Cl)cc3)c2C)s1

IC50 [2]: 22 nM
SMILES: CCc1c(C(=O)NC(C)(C)c2nnnn2C)nn(-c2ccc(Cl)cc2Cl)c1-c1ccc(C#N)cc1

inhibition [6]: 50%
SMILES: CCc1c(C(=O)NC(C)(C)c2nnnn2C)nn(-c2ccc(Cl)cc2Cl)c1-c1ccc(C(=O)O)cc1

IC50 [2]: 4 nM
SMILES: COCc1c(C(=O)NC(C)(C)c2noc(C(F)(F)F)n2)nn(-c2ccc(Cl)cc2Cl)c1-c1ccc(Cl)cc1
